Reference: US11001591B2, “TRAF 6 inhibitors” (HELMHOLTZ ZENTRUM MUENCHEN—DEUTSCHES FORSCHUNGSZENTRUM FÜR …, priority 2016, dated 2021)
“Also recorded” adds a separate entry of the source.

Tests used:
[1] = molecular target: T1, TRAF6-Ubc13 binding (Homo sapiens, UniProt Q9Y4K3); assay: Co-immunoprecipitation of HA-TRAF6 and endogenous Ubc13 in HEK 293T cells; assay type: cell-based; details: listed as C25-140
T1 construct: RING-Zincfinger1 (RZ1) domain (residues 50-159) of TRAF6 wildtype; expressed in transfected cells; host or cells: HEK 293T
T1 sequence (Q9Y4K3 50-159): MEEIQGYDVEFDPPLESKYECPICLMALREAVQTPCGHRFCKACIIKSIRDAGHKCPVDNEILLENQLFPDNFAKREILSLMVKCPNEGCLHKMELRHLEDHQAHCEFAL
Protocol: To study the interaction of TRAF6 and Ubc13 in cells, 1×10^6 293T cells were seeded and after 18 hours cells were transfected with lpg pEF-HA empty or pEF-HA-TRAF6 RZ1 plasmid using the X-tremeGENE HP DNA transfection reagent (Roche). 6 hours upon transfection, cells were treated with compound or DMSO. After 42 hours further incubation, cells were harvested in Co-IP lysis buffer and HA-TRAF6 was immunoprecipitated with anti-HA affinity matrix (Roche). Binding of Ubc13 to TRAF6 was examined in Western Blot analysis.

[2] = molecular target: T2, clAP1 (Homo sapiens, UniProt Q13490); assay: In vitro ubiquitination assay, clAP1; assay type: biochemical; details: RING E3 ligase; K63 chain formation
T2 construct: purchased Boston Biochem one of K-102, K-260, K-200B, K-220, K-240, K-270
T2 sequence (Q13490 whole entry): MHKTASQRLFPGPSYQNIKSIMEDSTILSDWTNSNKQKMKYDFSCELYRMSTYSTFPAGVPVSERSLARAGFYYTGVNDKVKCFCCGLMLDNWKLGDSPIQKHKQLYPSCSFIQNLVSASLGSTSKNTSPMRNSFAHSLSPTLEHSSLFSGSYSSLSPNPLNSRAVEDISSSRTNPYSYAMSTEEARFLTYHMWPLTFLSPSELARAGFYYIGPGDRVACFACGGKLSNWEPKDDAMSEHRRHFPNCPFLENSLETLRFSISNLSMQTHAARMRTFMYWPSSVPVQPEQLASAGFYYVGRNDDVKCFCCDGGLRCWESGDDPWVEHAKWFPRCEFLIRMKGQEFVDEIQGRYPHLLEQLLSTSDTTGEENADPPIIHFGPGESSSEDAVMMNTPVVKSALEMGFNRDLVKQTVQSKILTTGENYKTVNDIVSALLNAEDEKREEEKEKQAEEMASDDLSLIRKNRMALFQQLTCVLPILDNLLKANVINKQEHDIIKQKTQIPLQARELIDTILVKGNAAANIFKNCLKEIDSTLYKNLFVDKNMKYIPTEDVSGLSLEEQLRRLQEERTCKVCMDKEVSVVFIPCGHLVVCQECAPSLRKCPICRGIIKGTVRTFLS
Protocol: (§1) For analysis of clAP1, MDM2, TRIM63, RNF4, ITCH and E6AP mediated poly-ubiquitination, the respective ubiquitin ligase kit from Boston Biochem (K-102, K-260, K-200B, K-220, K-240 and K-270) was used. Here, reaction buffer, E1, E2 and E3 enzyme (and p53 substrate in case of MDM2) were mixed and pre-incubated with compound or DMSO for 5 minutes at room temperature before adding Mg^2+-ATP and mono-ubiquitin for reaction start. Ubiquitination was visualized by Western Blot analyses.

[3] = molecular target: T3, RNF4 (Homo sapiens, UniProt P78317); assay: In vitro ubiquitination assay, RNF4; assay type: biochemical
T3 construct: purchased Boston Biochem one of K-102, K-260, K-200B, K-220, K-240, K-270
T3 sequence (P78317 whole entry, species assumed): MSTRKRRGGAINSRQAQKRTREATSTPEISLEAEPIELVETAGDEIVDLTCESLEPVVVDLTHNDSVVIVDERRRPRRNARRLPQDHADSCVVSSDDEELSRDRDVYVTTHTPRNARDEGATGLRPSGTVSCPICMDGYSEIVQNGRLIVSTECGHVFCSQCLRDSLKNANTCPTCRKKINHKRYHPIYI
Protocol: as §1

[4] = test system: IKK kinase activity; assay: IKK kinase assay in Jurkat T-cells; assay type: cell-based, human; details: PMA/Ionomycin
Protocol: For MEF cells, 5.5×10^5 cells were seeded, then treated with compound for 6 hours and eventually stimulated with IL-1β or TNFα for 8 minutes. 1×10^6 Jurkat T-cells were treated with compound for 6 hours and finally stimulated with PMA (400 ng/ml) and lonomycin (600 ng/ml) for 8 minutes. After cell lysis in Co-IP lysis buffer (150 mM NaCl; 25 mM Hepes (pH 7.5); 0.2% NP-40; 1 mM Glycerol; 10 mM NaF; 8 mM β-Glycerophosphat; 1 mM DTT; 300 μM Sodium-vanadate; complete protease inhibitor), input samples were taken and the supernatant was then incubated with 6 μL IKKγ antibody FL-419 (Santa Cruz Biotechnology). Upon incubation with Protein-G-Sepharose beads (GE Healthcare), beads were washed in Co-IP wash buffer (150 mM NaCl; 25 mM Hepes (pH 7.5); 0.2% NP-40; 1 mM Glycerol) and transferred into kinase reaction buffer ([…] HEPES pH7.9; 10 mM MgCl2; 20 μM ATP; 20 mM β-Glycerophosphat; 200 μM Sodium-Vanadate; 1 mM DTT) supplemented with […] GST-IκBα (1-53) and 0.5 μL ^32P-γ-ATP. After 30 minutes incubation at 37° C., reaction was stopped and analyzed by autoradiography as well as Western Blot after separation on SDS-PAGE.

[5] = molecular target: T4, TRAF6 RZ1 protein (Homo sapiens, UniProt Q9Y4K3); assay: 2D-NMR (SOFAST-HMQC) binding; details: protein:compound 1:5
T4 construct: RING-Zincfinger1 (RZ1) domain (residues 50-159) of TRAF6 wildtype; GST (N, cleaved yes); made in house; host or cells: E. coli BL21 codon plus RIPL
Protocol: To determine whether the inhibitory compounds directly bind to TRAF6 rather than to Ubc13, 2D-NMR experiments were conducted. Untagged ^15N-labeled TRAF6 RZ1 protein (c=120 μM) and compound (c=20 mM) were incubated at a ratio of 1:5 in a 3 mm NMR tube for 10 minutes before spectra acquisition. To observe chemical shift perturbations upon compound addition, two-dimensional SOFAST-HMQC spectra were acquired. All measurements were performed using the Bruker Avance 600 MHz spectrometer.

Cc1nn(-c2ccc3nnc(C)n3n2)c(C)c1CCC(=O)N1CCC(Cc2ccccc2)CC1 [Compound 3, 1-(4-benzylpiperidin-1-yl)-3-(3,5-dimethyl-1-(3-methyl-[1,2,4]triazolo[4,3-b]pyridazin-6-yl)-1H-pyrazol-4-yl)propan-1-one]
interaction of endogenous Ubc13 with ectopically expressed HA-TRAF6 [1]: reduced interaction; also recorded: most active analogs
auto-ubiquitination of clAP1 [2]: dose-dependently diminished
RNF4 auto-ubiquitination [3]: not affected
IKK kinase activity [4]: diminished
direct binding to TRAF6 (NMR peak shifts) [5]: directly binds
